What was measured:
[1] = target: T1, PDE10 from rat striatum (Rattus norvegicus, UniProt Q9QYJ6); test: Inhibition of PDE10 from rat striatum; assay type: biochemical; details: 0.1 μM [3H]-cAMP, 37° C., 30 minutes
T1 construct: 0.5 g of the isolated and frozen striatum was homogenised; from tissue; host or cells: rat striatum, ion-exchange FPLC fractions with PDE10 activity
T1 sequence (Q9QYJ6 1-794): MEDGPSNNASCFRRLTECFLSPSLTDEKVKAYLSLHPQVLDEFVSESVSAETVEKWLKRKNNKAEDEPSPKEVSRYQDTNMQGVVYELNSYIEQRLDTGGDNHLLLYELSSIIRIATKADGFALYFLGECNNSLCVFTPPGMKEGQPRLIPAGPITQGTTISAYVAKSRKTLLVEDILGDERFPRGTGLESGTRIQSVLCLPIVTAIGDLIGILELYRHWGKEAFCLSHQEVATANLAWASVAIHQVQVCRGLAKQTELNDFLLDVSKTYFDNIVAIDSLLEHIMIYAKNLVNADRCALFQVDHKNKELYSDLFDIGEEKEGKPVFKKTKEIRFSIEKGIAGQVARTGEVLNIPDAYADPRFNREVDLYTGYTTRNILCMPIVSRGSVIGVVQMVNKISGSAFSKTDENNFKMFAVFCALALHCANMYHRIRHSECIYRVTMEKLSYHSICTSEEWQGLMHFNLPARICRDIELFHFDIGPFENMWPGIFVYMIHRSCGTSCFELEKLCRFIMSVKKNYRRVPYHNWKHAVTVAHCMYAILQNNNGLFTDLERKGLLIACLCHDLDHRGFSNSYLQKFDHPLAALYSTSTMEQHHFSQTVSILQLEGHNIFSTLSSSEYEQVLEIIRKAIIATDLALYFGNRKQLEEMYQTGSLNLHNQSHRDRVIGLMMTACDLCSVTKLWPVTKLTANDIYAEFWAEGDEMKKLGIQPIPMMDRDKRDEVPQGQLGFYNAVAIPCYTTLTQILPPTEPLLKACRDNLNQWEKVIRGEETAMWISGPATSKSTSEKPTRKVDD
Method: (§1) Phosphodiesterase isoenzyme 10 (PDE10) activity was determined in preparations of rat, pig and guinea pig striatum respectively. Striatum from male Wistar rats (180-200 g), male hybrid pigs (150 kg) and male guinea pigs (CRL (HA), 500 g) respectively were collected and frozen at −70° C.
(§2) For the enzymatic testing of PDE10 activity 0.5 g of the isolated and frozen striatum was homogenised in 10 ml 50 mM Tris/Mg-buffer at 4° C. and centrifuged for one hour at 100000 g.
(§3) Nonspecific activity was tested without the enzyme. […] For determination of IC50 values the Hill-plot, 2-parameter-model, was used.

[2] = target: T2, PDE10 from pig striatum (Sus scrofa, UniProt A0A287B941); test: Inhibition of PDE10 from pig striatum; assay type: biochemical; details: 0.1 μM [3H]-cAMP, 37° C., 30 minutes
T2 construct: "Striatum from male hybrid pigs (150 kg)"
Method: Phosphodiesterase isoenzyme 10 (PDE10) activity was determined in preparations of human recombinant PDE10A and PDE10 from pig striatum, respectively.
Striatum from male hybrid pigs (150 kg) were collected and frozen at −70° C.
At the day of preparation 0.5 g striatum was homogenised in 10 ml 50 mM Tris/Mg-buffer at 4° C. and centrifuged for one hour at 100000 g.
as §3, §1, §2

[3] = target: PDE10 from guinea pig striatum (Cavia porcellus, UniProt A0A286XN47); test: Inhibition of PDE10 from guinea pig striatum; assay type: biochemical; details: 0.1 μM [3H]-cAMP, 37° C., 30 minutes
Sequence of PDE10 from guinea pig striatum (A0A286XN47 1-773): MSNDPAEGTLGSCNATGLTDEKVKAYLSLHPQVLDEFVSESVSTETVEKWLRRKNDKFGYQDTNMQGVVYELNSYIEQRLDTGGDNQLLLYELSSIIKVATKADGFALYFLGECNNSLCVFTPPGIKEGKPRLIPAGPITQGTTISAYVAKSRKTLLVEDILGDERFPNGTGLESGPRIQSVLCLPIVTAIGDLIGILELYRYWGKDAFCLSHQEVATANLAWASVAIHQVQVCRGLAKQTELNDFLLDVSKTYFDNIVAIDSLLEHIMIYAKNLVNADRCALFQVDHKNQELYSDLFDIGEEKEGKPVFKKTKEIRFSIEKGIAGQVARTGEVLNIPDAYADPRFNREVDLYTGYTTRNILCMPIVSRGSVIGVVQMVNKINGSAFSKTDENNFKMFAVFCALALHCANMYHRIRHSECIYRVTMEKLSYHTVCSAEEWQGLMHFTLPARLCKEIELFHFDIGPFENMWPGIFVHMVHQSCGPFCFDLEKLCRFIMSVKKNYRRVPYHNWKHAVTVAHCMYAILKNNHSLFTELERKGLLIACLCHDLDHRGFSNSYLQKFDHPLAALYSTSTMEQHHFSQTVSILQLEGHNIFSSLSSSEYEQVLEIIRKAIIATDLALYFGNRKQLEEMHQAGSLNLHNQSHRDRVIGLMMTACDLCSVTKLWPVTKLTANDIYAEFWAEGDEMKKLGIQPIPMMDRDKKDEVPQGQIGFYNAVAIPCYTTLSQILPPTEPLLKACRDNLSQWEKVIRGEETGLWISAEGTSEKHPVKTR
Method: as §1, §2, §3

[4] = tested on: MK-801-induced psychosis; test: MK-801-induced psychosis: hyperactivity and stereotyped sniffing; assay type: in vivo; details: female Wistar rats, MK-801 0.1 mg/kg i.p. 10 min before test, compound 30 min prior, recorded 1 h; for dose that significantly reversed MK-801-induced hyperactivity / dose that significantly reversed MK-801-induced stereotyped sniffing: p.o.
Method: Female Wistar rats (Crl: (WI) BR, Charles River, Sulzfeld, Germany) weighing 150 to 180 g were used for the MK-801-induced psychosis. Animals were housed under standard conditions in groups of five on a 12 h light/dark cycle (light on at 0600 h) with ad libitum access to food (Pellets, ssniff M/R 15, Spezialdiät GmbH, Soest/Westfalen) and water.
MK-801 (dizocilpine, MW 337.37) was obtained by Tocris, distributed by Biotrend Chemikalien GmbH, Köln, Germany.
Hydroxyethylcellulose was solved in distilled water.
MK-801 was solved in saline so that an administration volume of 0.5 ml/100 g was reached. The suspensions and solution were placed on a magnetic stirrer before and during dosing procedures.
The behaviour induced by the NMDA antagonist MK-801 is generally accepted as a rat model of psychosis. MK-801 induces stereotyped sniffing, hyperactivity and ataxia in rats after intraperitoneal administration.
Locomotor activity of the rats was recorded by the MotiTest Apparatus (TSE, Bad Homburg, Germany). The test area consisted of a squared arena (45×45 cm) with protective plexiglass walls (20 cm of height) where rats could freely move. Horizontal movements were recorded by 32 infrared photocells arranged along the bottom of each wall of the arena. The activity [sec] was measured by the computer program “ActiMot” (TSE, Bad Homburg, Germany).
Stereotyped sniffing was scored by the experimenter every five minutes for one hour (12 intervals) according to the method described by Andine et al. (1999). The scores of the 12 intervals were summed up at the end of the recording time.
The day of experiment the female rats were placed in the laboratory and received the test compound or vehicle at the appropriate time prior to test. MK-801 0.1 mg/kg was intraperitoneally administered 10 minutes prior to test.
At the beginning of the test the rats were placed in the centre of the squared arena of the MotiTest apparatus. Behaviour of the rats was recorded for one hour. After each run animals were removed and the boxes thoroughly cleaned and dried.
Results were analysed by one way analysis of variance (ANOVA). Tukey test was used for individual comparison. P<0.05 was regarded as significant.

[5] = tested on: dopamine concentration in rat brain; details: cited from earlier work
[6] = tested on: apomorphine-induced stereotypies; details: rats; cited from earlier work
[7] = tested on: haloperidol-induced catalepsy; details: rats; cited from earlier work

Row | Compound | IC50 [1] | IC50 [2] | further results
1 | 3,4-dimethyl-8-methoxy-1-phenyl-imidazo[1,5-a]pyrido[3,2-e]pyrazine [Example 47a] |  | 6 nM | IC50 [3]: 15 nM
2 | 4-(N-formyl-amino)-8-methoxy-3-methyl-1-propyl-imidazo[1,5-a]pyrido[3,2-e]pyrazine [Example 37b] | 50 nM | 29 nM | 
3 | 4-amino-1-(2-chloro-phenyl)-8-methoxy-3-methyl-imidazo[1,5-a]pyrido[3,2-e]pyrazine [Example 11b] |  | 0.5 nM | dose that significantly reversed MK-801-induced hyperactivity [4]: ≥ 0.5 mg/kg; dose that significantly reversed MK-801-induced stereotyped sniffing [4]: ≥ 0.5 mg/kg
4 | 4-amino-3-methyl-1-propyl-imidazo[1,5-a]pyrido[3,2-e]pyrazine [Example 4b] | 57 nM | 27 nM | 
5 | 4-cyano-8-methoxy-3-methyl-1-ethyl-imidazo[1,5-a]pyrido[3,2-e]pyrazine [Example 30a] |  | 20 nM | dose that significantly reversed MK-801-induced hyperactivity [4]: ≥ 10 mg/kg; dose that significantly reversed MK-801-induced stereotyped sniffing [4]: ≥ 10 mg/kg; IC50 [3]: 51 nM
6 | 4-cyano-8-methoxy-3-methyl-1-propyl-imidazo[1,5-a]pyrido[3,2-e]pyrazine [Example 29a] |  |  | dose that significantly reversed MK-801-induced stereotyped sniffing [4]: ≥ 5 mg/kg; IC50 [3]: 18 nM
7 | 4-ethoxycarbonylamino-8-methoxy-3-methyl-1-propyl-imidazo[1,5-a]pyrido[3,2-e]pyrazine [Example 63a] | 563 nM | 189 nM | 
8 | 8-methoxy-3-methyl-1-propyl-imidazo[1,5-a]pyrido[3,2-e]pyrazine [Example 35a] | 61 nM | 40 nM | dose that significantly reversed MK-801-induced hyperactivity [4]: 30 mg/kg; dose that significantly reversed MK-801-induced stereotyped sniffing [4]: ≥ 30 mg/kg
9 | 8-methoxy-3-methyl-4-(N-propionyl-amino)-1-propyl-imidazo[1,5-a]pyrido[3,2-e]pyrazine [Example 43b] | 2410 nM | 896 nM | 
10 | 8-methoxy-3-methyl-4-methylsulfonylamino-1-propyl-imidazo[1,5-a]pyrido[3,2-e]pyrazine [Example 69a] | 11 nM | 5 nM | IC50 [3]: 11 nM
11 | 8-methoxy-4-methoxycarbonylamino-3-methyl-1-propyl-imidazo[1,5-a]pyrido[3,2-e]pyrazine [Example 62a] | 35 nM | 6 nM | dose that significantly reversed MK-801-induced hyperactivity [4]: 5 mg/kg; dose that significantly reversed MK-801-induced stereotyped sniffing [4]: 5 mg/kg; IC50 [3]: 26 nM
12 | CCCc1nc(C)c2n1-c1nc(OC)ccc1N(C(C)=O)C2 [Example 95a, 5-acetyl-8-methoxy-3-methyl-1-propyl-4,5-dihydro-imidazo[1,5-a]pyrido[3,2-e]pyrazine] | 335 nM | 222 nM | dose that significantly reversed MK-801-induced hyperactivity [4]: 30 mg/kg; dose that significantly reversed MK-801-induced stereotyped sniffing [4]: 30 mg/kg
13 | CCc1nc(C)c2c(Cl)nc3cccnc3n12 [Intermediate A11] | 171 nM | 97 nM | melting point: 117 to 120 °C
14 | COc1ccc(Cc2nccc3cc(OC)c(OC)cc23)cc1OC [Papaverine] |  |  | effect on dopamine concentration in rat brain [5]: reducing dopamine concentration in rat brain; effect on apomorphine-induced stereotypies [6]: reduces apomorphine-induced stereotypies; effect on haloperidol-induced catalepsy [7]: increases haloperidol-induced catalepsy

Now from value to compound, other results behind:

Row | IC50 [1] | IC50 [2] | Compound | further results
15 | 241 nM | 80 nM | 1-ethyl-4-(N-formyl-amino)-8-methoxy-3-methyl-imidazo[1,5-a]pyrido[3,2-e]pyrazine [Example 36b] | 
16 |  | 2 nM | 3,4-dimethyl-8-(2-propyl-4-methyl-imidazol-1-yl)-methoxy-1-propyl-imidazo[1,5-a]pyrido[3,2-e]pyrazine [Example 58a] | IC50 [3]: 4 nM
17 | 220 nM |  | 4-(N-acetyl-amino)-1-ethyl-8-methoxy-3-methyl-imidazo[1,5-a]pyrido[3,2-e]pyrazine [Example 40b] | 
18 | 95 nM | 41 nM | 4-(N-acetyl-amino)-8-methoxy-3-methyl-1-phenyl-imidazo[1,5-a]pyrido[3,2-e]pyrazine [Example 42b] | 
19 | 5 nM | 3 nM | 4-amino-8-methoxy-3-methyl-1-phenyl-imidazo[1,5-a]pyrido[3,2-e]pyrazine [Example 10b] | 
20 | 8 nM | 4 nM | 4-chloro-8-methoxy-3-methyl-1-propyl-imidazo[1,5-a]pyrido[3,2-e]pyrazine [Intermediate A1] | 
21 | 72 nM |  | CCCc1nc(C)c2c(N(S(C)(=O)=O)S(C)(=O)=O)nc3ccc(OC)nc3n12 [Example 70a, 4-(N,N-bis-methylsulfonyl)-amino-8-methoxy-3-methyl-1-propyl-imidazo[1,5-a]pyrido[3,2-e]pyrazine] | 
22 | 159 nM | 108 nM | CCCc1nc(C)c2n1-c1nc(OC)ccc1NC2 [Example 91a, 8-methoxy-3-methyl-1-propyl-4,5-dihydro-imidazo[1,5-a]pyrido[3,2-e]pyrazine] | melting point: 157 to 160 °C; dose that significantly reduced MK-801-induced hyperactivity ([4]; i.p.): ≥ 15 mg/kg; dose that significantly reduced MK-801-induced stereotyped sniffing ([4]; i.p.): ≥ 15 mg/kg

Source: US20090143392A1, “Methods of Treating Obesity and Metabolic Disorders” (ELBION GMBH, priority 2007, published 2009)
